Measured values published in patent US20250381110A1, “SKIN CARE COMPOSITION AND METHOD OF USING THE SAME” (THE PROCTER & GAMBLE COMPANY, priority 2024, published 2025).
Where a name gives a salt, the structure may show the parent alone. Read-outs that look alike come from different tables or passages of the source.

Tested on: p62-dependent mitophagy
Assay: Luciferase-p62 assay (Fluc-p62 clearance) in mouse embryonic fibroblasts
Format: cell-based
Outline: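 MEFs with doxycycline-inducible Fluc-p62; after induction, doxycycline removed and cells treated 48 h with compounds at 10 μM. Fluc-p62 clearance, taken as mitophagy, read by ONE-Glo+Tox luciferase with viability. Vehicle (DMSO) as negative control; activity also expressed relative to rapamycin.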

[1] = Luciferase-p62 assay, mouse embryonic fibroblasts (MEFs), compounds at 10 μM
[2] = percentage of Luciferase-p62 clearance relative to baseline (mean luminescence in the absence of doxycycline induction), MEFs, 10 μM
[3] = percentage of activity relative to rapamycin tested in the same experiment at the same concentration, MEFs, 10 μM

Row | Structure (SMILES) | Mean Luminescence [1] | % Activity over baseline [2] [%] | % Activity relative to Rapamycin [3] [%] | Mean Luminescence | % Activity over baseline (10 µM) [%] | % Activity relative to Rapamycin (10 µM) [%]
1 | O[C@@H]1[C@@H](O)[C@H](OC/C=C/c2ccccc2)O[C@H](CO[C@@H]2OC[C@H](O)[C@H](O)[C@H]2O)[C@H]1O [Rosavin] | 983.74 | 39.20 | 70.64 | – | – | –
2 | CCc1ccc(CCOc2ccc(CC3SC(=O)NC3=O)cc2)nc1 (stereo not shown) [Pioglitazone] | 847.16 | 47.65 | 85.84 | – | – | –
3 | N=c1ccn2c(n1)O[C@H]1[C@H](O)[C@@H](CO)O[C@H]12 [Cyclocytidine HCl] | 914.30 | 43.50 | 78.37 | – | – | –
4 | C[C@H]1[C@H](C)CC[C@]2(C(=O)O)CC[C@]3(C)C(=CC[C@@H]4[C@@]5(C)CC[C@H](O)C(C)(C)[C@@H]5CC[C@]43C)[C@H]12 [Ursolic acid] | 905.10 | 44.06 | 79.39 | – | – | –
5 | COc1cc2ncnc(Nc3ccc(F)c(Cl)c3)c2cc1OCCCN1CCOCC1 [Gefitinib (ZD1839)] | 960.31 | 40.65 | 73.25 | – | – | –
6 | COc1cc(C=O)cc(OC)c1O [Syringaldehyde] | 896.55 | 44.59 | 80.34 | – | – | –
7 | O=C1O[C@H]2[C@@H]3OC(=O)c4cc(O)c(O)c(O)c4-c4c(O)c(O)c5oc(=O)c6c(c(O)c(O)c7oc(=O)c4c5c76)-c4c(cc(O)c(O)c4O)C(=O)OC[C@H]3OC(O)[C@@H]2OC(=O)c2cc(O)c(O)c(O)c2-c2c1cc(O)c(O)c2O (mixture of isomers) [Punicalagin] | 782.52 | 51.64 | 93.04 | – | – | –
8 | CCN(CC)c1ccc(/C=N/NC(=O)c2ccc(O)cc2)cc1 [DY131] | 878.41 | 45.71 | 82.36 | – | – | –
9 | COc1cc2c(cc1OC)[C@@H](Cc1ccc(O)c(Oc3cc4c(cc3OC)CCN(C)[C@@H]4Cc3ccc(O)cc3)c1)N(C)CC2 [Liensinine] | 923.21 | 42.94 | 77.38 | – | – | –
10 | C=C[C@@]1(C)CC(=O)[C@]2(O)[C@@]3(C)[C@@H](O)CCC(C)(C)[C@@H]3[C@H](O)[C@H](OC(C)=O)[C@@]2(C)O1 [Forskolin] | 911.32 | 43.68 | 78.70 | – | – | –
11 | C[C@]12CC[C@@H]3c4ccc(O)cc4CC[C@H]3[C@@H]1CCC2=O [Estrone] | 670.65 | 58.55 | 105.50 | – | – | –
12 | Cl.Cl.NCCCCN [1,4-Diaminobutane dihydrochloride] | – | – | – | 902.42 | 44.23 | 79.69
13 | CC1(C)C2CCC1(C)C(O)C2 (stereo not shown) [(—)-Borneol] | 967.20 | 40.23 | 72.48 | – | – | –
14 | C[C@@H]1CC[C@H]2[C@@H](C)C(=O)O[C@@H]3O[C@@]4(C)CC[C@@H]1[C@]32OO4 [Artemisinine] | – | 39.29 | – | – | – | –
15 | CCCCCCCCC[C@H](O)CC(=O)CCc1ccc(O)c(OC)c1 [Compound 10-Gingerol] | 520.57 | 67.83 | 122.21 | – | – | –
16 | COC(=O)[C@H]1[C@H]2C[C@@H]3c4[nH]c5cc(OC)ccc5c4CCN3C[C@H]2C[C@@H](OC(=O)c2cc(OC)c(OC)c(OC)c2)[C@@H]1OC [Reserpine] | 915.14 | 43.44 | 78.27 | – | – | –
17 | CN(CC(=O)O)C(=N)N.O [Creatine monohydrate] | 901.68 | 44.28 | 79.77 | – | – | –
